# Where two headings read alike, the source gives them in different places. Positions of bridges follow the written chain, without caps; N, C: chain ends. Non-standard residues stand in square brackets, D forms with d. Residues, ends and D or L forms follow the SMILES beside them. No end group written: not given here. Nle = CCCC[C@H](N)C(=O)O
# How the values were obtained:
# CD3+ lymphocytes = experiment: cells; format: cell-based, human; details: for % Inhibition of cell migration compared to control, CD3+: normalized to untreated control, mean ± SEM of 4-6 experiments
# Experimental: 1 Transwell-based migration assay to study lymphocyte transendothelial migration. (A) The general principle of the transwell migration assay is depicted. Endothelial cells (EC) are seeded in transwell inserts and are incubated for 2 days to form an EC monolayer. On the day before the assay, the ECs are cytokine-stimulated to induce the expression of adhesion molecules. In the migration assay, human peripheral blood mononuclear cells (PBMC) are placed into the donor compartment of the transwell setup. After 4 h of incubation time, the migrated cells are harvested from the receiver compartment, stained with fluorescent antibodies and counted using flow cytometry. (B) PBMCs were preincubated with S1P for 1.5 h and then transferred into the donor compartment on top of the EC monolayer. […] Data are shown as mean ± SD of 3 to 5 independent experiments.
# (§1) Transwell migration assays were performed similarly as published previously. HMEC-1 cells were seeded at a density of 75,000 cells per well in transwell inserts. Three days after cell seeding, the medium was changed, and the cells were stimulated with 100 ng/mL TNF-α and 20 ng/mL IFN-γ for 16–18 h. On the day of the assay, cells were washed with migration medium (serum-free RPMI medium supplemented with 0.1% BSA) to remove residual cytokines and starved for at least 1 h at 37 °C in migration medium. PBMC were starved for at least 1.5 h in migration medium before addition to the EC. For S1P and lifitegrast-treated samples, the PBMC were preincubated for at least 1.5 h at 37 °C with the ligands before addition to the EC. Pepitem and other peptides were added onto the EC monolayer and preincubated for 15–30 min at 37 °C before the addition of the PBMC. 200,000 PBMC per well were added directly on top of the EC prestimulated with pepitem or other peptides to reach a final volume of 150 μL in the donor compartments. The receiver compartments of the wells were filled with 600 μL RPMI with 20% FBS. After 4 h of migration at 37 °C, the receiver compartment with the migrated cells was collected. The migrated cells were stained with the indicated antibodies: CD3-APC (clone: OKT3, lot: B400127), CD4-PE (clone: OKT4. lot: B379180), CD8-FITC (clone: HIT8a, lot: B370193) from Biolegend and CD3-VioGreen (clone: REA613, lot: 5240502518), CD45RO-FITC (clone: REA611, lot: 5240502519), CD4-PerCP-Vio700 (clone: REA623, lot: 5240506702), CXCR3 PE-Vio615 (clone: REA232, lot: 5240506722), CD196-APC (clone: REA190, lot: 5240506717), CD8-APC-Vio770 (clone: REA734, lot: 5240303993) and CD45RO-PEVio616 (clone: REA611, lot: 5231102514) from Miltenyi Biotec (Bergisch Gladbach, Germany) and counted using precision counting beads (Biolegend) on a CytoflexS flow cytometer (BeckmanCoulter). Data was analyzed using CytExpert (Version 2.4). T cells were gated as CD3^+ cells, T cell subsets were gated as CD4^+ (CD3^+, CD4^+), CD8^+ (CD3^+, CD8^+), memory CD4^+ (CD3^+, CD4^+, CD45RO^+), memory CD8^+ (CD3^+, CD8^+, CD45RO^+) and Th1 cells (CD3^+, CD4^+, CXCR3^+, CCR6^–).
# (§2) Data were analyzed using GraphPad Prism software. EC50 values were calculated by three-parameter nonlinear regression analysis. For this, the data points were normalized to the number of migrated cells in untreated (buffer) control samples (100%), and the regression was fitted with the top constraint to 100 and the slope fixed to 1. Statistical significance is indicated in graphs as n.s. not significant, * p < 0.05; ** p < 0.01; *** p < 0.001. The statistical tests used are indicated in the respective figure captions.
# [1] = tested on: CD4+ lymphocytes (CD3+, CD4+); format: cell-based, human; details: normalized to untreated control, mean ± SEM of 4-6 experiments
# Experimental: as §1, §2
# [2] = tested on: CD8+ lymphocytes (CD3+, CD8+); format: cell-based, human; details: normalized to untreated control, mean ± SEM of 4-6 experiments
# Experimental: as §1, §2
# [3] = tested on: memory CD4+ cells (CD3+, CD4+, CD45RO+); format: cell-based, human; details: normalized to untreated control, mean ± SEM of 4-6 experiments
# Experimental: as §1, §2
# [4] = tested on: memory CD8+ cells (CD3+, CD8+, CD45RO+); format: cell-based, human; details: normalized to untreated control, mean ± SEM of 4-6 experiments
# Experimental: as §1, §2
# Serum stability assay = format: in vitro ADME; details: human serum of healthy donors, lipids removed by centrifugation, 37 °C, peptide 30-60 μM from 10-fold stock in PBS, followed over 48 h, urea/TFA quench, analytical RP-HPLC peak area vs time 0, one-phase decay fit, mean ± SD, n = 2 (pepitem n = 5); for half-life: read-out: Serum t 1/2 (converted)
# Experimental: Stability of peptides in human serum was measured similarly to that previously described. In short, fresh blood from healthy donors was collected in serum collection tubes (Clot Activator Tube, Becton Dickinson, Plymouth, United Kingdom, […]) and incubated at 4 °C for 2 h to allow blood clotting. The serum was separated by centrifugation at 1000 × g for 10 min. To remove lipids from the serum, an additional centrifugation step was performed at 15,000 × g for 15 min at 4 °C, after which the serum was used for the stability assays. For this, the serum was prewarmed for 10 min at 37 °C before the addition of the test compounds. Peptides were prepared at a 10-fold concentration in PBS and diluted to a final concentration between 60 and 30 μM with the serum. The serum-peptide reaction mix was incubated at 37 °C, and 40 μL aliquots were taken at the indicated time points. To stop the reaction, samples were mixed with 40 μL of 6 M urea for 10 min on ice, followed by precipitation of serum proteins by the addition of 40 μL of 20% TFA and incubation for at least 10 min on ice. The precipitate was pelleted at 15,000 × g for 15 min, and 90 μL of the supernatant was freeze-dried. The dry material was resuspended in HPLC solvent A (0.1% TFA in ddH2O). Peptide quantification was performed using analytical HPLC. The remaining peptide relative to the starting point (time point 0) was calculated by peak integration to determine the area under the peak at the designated time points and further calculated in comparison to time point 0 min, which was set as 100%. To calculate the half-life of the peptides in human serum, data points were fitted with a one-phase decay equation.
# [5] = Homo sapiens, Lymphocyte, PBMC preincubated with ligand for 1.5 h, then added onto EC monolayer, 4 h migration, mean ± SD, 3 or more experiments, read-out: EC50, inhibition of CD3+ cell migration
Molecule,EC50 (CD3+ lymphocytes; [5]),half-life (Serum stability assay),EC50 (CD3+ lymphocytes; 4 h),Serum t 1/2 (Serum stability assay),"% Inhibition of cell migration compared to control, CD3+ (CD3+ lymphocytes; 0.1 μM)","% Inhibition of cell migration compared to control, CD3+ (CD3+ lymphocytes; 1 μM)","% Inhibition of cell migration compared to control, CD4+ ([1]; 0.1 μM)","% Inhibition of cell migration compared to control, CD4+ ([1]; 1 μM)","% Inhibition of cell migration compared to control, CD8+ ([2]; 0.1 μM)","% Inhibition of cell migration compared to control, CD8+ ([2]; 1 μM)","% Inhibition of cell migration compared to control, Memory CD4+ ([3]; 0.1 μM)","% Inhibition of cell migration compared to control, Memory CD4+ ([3]; 1 μM)","% Inhibition of cell migration compared to control, Memory CD8+ ([4]; 0.1 μM)","% Inhibition of cell migration compared to control, Memory CD8+ ([4]; 1 μM)"
"CCCCCCCCCCCCC/C=C/[C@@H](O)[C@@H](N)COP(=O)(O)O [Sphingosine-1-phosphate, reference compound]",54.6 ± 49.1 nM,,,,,,,,,,,,,
"CCCC[C@@H]1NC(=O)[C@H](C(C)C)NC(=O)[C@H](CCCCN)NC(=O)[C@@H](NC(=O)[C@H](CCC(N)=O)NC(=O)[C@H](CCC(=O)O)NC(C)=O)CSSC[C@@H](C(=O)N[C@@H](CCC(=O)O)C(=O)N[C@@H](CCCCN)C(N)=O)NC(=O)[C@H](CC(N)=O)NC(=O)[C@H](CC(=O)O)NC(=O)[C@H](CC(C)C)NC(=O)[C@@H]2CSSC[C@H](NC1=O)C(=O)N[C@@H](Cc1ccc(O)cc1)C(=O)N[C@@H](CCC(=O)O)C(=O)N[C@@H](CCC(N)=O)C(=O)NCC(=O)N[C@@H](C)C(=O)N[C@@H](CCC(=O)O)C(=O)N[C@@H](CC(C)C)C(=O)N1CCC[C@H]1C(=O)N[C@@H](CCC(=O)O)C(=O)N[C@@H](CC(C)C)C(=O)N[C@@H](CC(C)C)C(=O)N[C@@H](CCCNC(=N)N)C(=O)N[C@@H](CCCNC(=N)N)C(=O)N2 [VhTI-pep 3] (Ac-EQCKV[Nle]CYEQGAELPELLRRCLDNCEK-NH2; disulfide 3-25, 7-21)",,> 48 h,,,1.5 ± 7.6%,4.6 ± 10.6%,–8.9 ± 18.1%,10.8 ± 10.1%,10.4 ± 11.2%,14.0 ± 13.8%,–8.7 ± 3.4%,11.7 ± 10.6%,3.9 ± 9.7%,3.0 ± 11.6%
"CCCC[C@@H]1NC(=O)[C@H](C(C)C)NC(=O)[C@H](CCCCN)NC(=O)[C@@H](NC(=O)[C@H](CCC(N)=O)NC(=O)[C@H](CCC(=O)O)NC(C)=O)CSSC[C@@H](C(=O)N[C@@H](CCC(=O)O)C(=O)N[C@@H](CCCCN)C(N)=O)NC(=O)[C@H](CC(N)=O)NC(=O)[C@H](CC(=O)O)NC(=O)[C@H](CC(C)C)NC(=O)[C@@H]2CSSC[C@H](NC1=O)C(=O)N[C@@H](Cc1ccc(O)cc1)C(=O)N[C@@H](CCC(N)=O)C(=O)NCC(=O)N[C@@H](C)C(=O)N[C@@H](CCC(=O)O)C(=O)N[C@@H](CC(C)C)C(=O)N[C@@H](CO)C(=O)N1CCC[C@H]1C(=O)N[C@@H](CCC(=O)O)C(=O)N[C@@H](CC(C)C)C(=O)N[C@@H](CC(C)C)C(=O)N[C@@H](CCCNC(=N)N)C(=O)N[C@@H](CCCNC(=N)N)C(=O)N2 [VhTI-pep 4] (Ac-EQCKV[Nle]CYQGAELSPELLRRCLDNCEK-NH2; disulfide 3-25, 7-21)",,> 48 h,,,16.7 ± 11.0%,24.4 ± 8.0%,16.5 ± 7.3%,24.5 ± 5.9%,19.5 ± 20.2%,26.0 ± 10.7%,12.9 ± 11.0%,27.2 ± 7.8%,27.9 ± 3.8%,19.7 ± 7.9%

# Second part, led by results:
EC50 (CD3+ lymphocytes; [5]),half-life (Serum stability assay),EC50 (CD3+ lymphocytes; 4 h),Serum t 1/2 (Serum stability assay),Molecule,"% Inhibition of cell migration compared to control, CD3+ (CD3+ lymphocytes; 0.1 μM)","% Inhibition of cell migration compared to control, CD3+ (CD3+ lymphocytes; 1 μM)","% Inhibition of cell migration compared to control, CD4+ ([1]; 0.1 μM)","% Inhibition of cell migration compared to control, CD4+ ([1]; 1 μM)","% Inhibition of cell migration compared to control, CD8+ ([2]; 0.1 μM)","% Inhibition of cell migration compared to control, CD8+ ([2]; 1 μM)","% Inhibition of cell migration compared to control, Memory CD4+ ([3]; 0.1 μM)","% Inhibition of cell migration compared to control, Memory CD4+ ([3]; 1 μM)","% Inhibition of cell migration compared to control, Memory CD8+ ([4]; 0.1 μM)","% Inhibition of cell migration compared to control, Memory CD8+ ([4]; 1 μM)"
,> 48 h,,,"CCCC[C@@H]1NC(=O)[C@H](C(C)C)NC(=O)[C@H](CCCCN)NC(=O)[C@@H](NC(=O)[C@H](CCC(N)=O)NC(=O)[C@H](CCC(=O)O)NC(C)=O)CSSC[C@@H](C(=O)N[C@@H](CCC(=O)O)C(=O)N[C@@H](CCCCN)C(N)=O)NC(=O)[C@H](CC(N)=O)NC(=O)[C@H](CC(=O)O)NC(=O)[C@H](CC(C)C)NC(=O)[C@@H]2CSSC[C@H](NC1=O)C(=O)N[C@@H](Cc1ccc(O)cc1)C(=O)N[C@@H](C)C(=O)N[C@@H](CCC(N)=O)C(=O)NCC(=O)N[C@@H](C)C(=O)N[C@@H](CCC(=O)O)C(=O)N[C@@H](CC(C)C)C(=O)N[C@@H](CO)C(=O)N1CCC[C@H]1C(=O)N[C@@H](CCC(=O)O)C(=O)N[C@@H](CC(C)C)C(=O)N[C@@H](CC(C)C)C(=O)N[C@@H](CCCNC(=N)N)C(=O)N[C@@H](CCCNC(=N)N)C(=O)N2 [VhTI-pep 1] (Ac-EQCKV[Nle]CYAQGAELSPELLRRCLDNCEK-NH2; disulfide 3-26, 7-22)",25.6 ± 6.4%,33.4 ± 8.5%,23.5 ± 9.7%,30.3 ± 14.7%,34.6 ± 8.0%,38.4 ± 2.4%,15.1 ± 14.2%,39.5 ± 11.6%,21.2 ± 3.1%,29.6 ± 6.7%
,~3 h,6 ± 6.4 nM,3.1 ± 0.5 h,"SVTEQGAELSNEER [Pepitem, reference compound]",,,,,,,,,,
2.2 ± 3.6 nM,,,,"CS(=O)(=O)c1cccc(C[C@H](NC(=O)c2c(Cl)cc3c(c2Cl)CCN(C(=O)c2ccc4ccoc4c2)C3)C(=O)O)c1 [lifitegrast, reference compound]",,,,,,,,,,

# Reference: article PMC12406255, “Engineering Peptide Modulators for T‑Cell Migration by Structural Scaffold Matching” (Journal of Medicinal Chemistry, 2025)
